Experimental data taken from patent US12643910B2, “Substituted pyrazolo[3,4-b]pyridines as ectonucleotide pyrophosphatase/phosphodiesterase 1 (ENPP1) modulators” (SANFORD BURNHAM PREBYS MEDICAL DISCOVERY INSTITUTE, priority 2019, dated 2026).

Columns and labels:
human ENPP1 = biological target: T1, human ENPP1 (Homo sapiens, UniProt P22413); experiment: ENPP1 assay with ATP substrate (Transcreener AMP2/GMP2 TR-FRET); type: biochemical; details: 1 hour at room temperature
T1 construct: made in house
T1 sequence (P22413 1-925): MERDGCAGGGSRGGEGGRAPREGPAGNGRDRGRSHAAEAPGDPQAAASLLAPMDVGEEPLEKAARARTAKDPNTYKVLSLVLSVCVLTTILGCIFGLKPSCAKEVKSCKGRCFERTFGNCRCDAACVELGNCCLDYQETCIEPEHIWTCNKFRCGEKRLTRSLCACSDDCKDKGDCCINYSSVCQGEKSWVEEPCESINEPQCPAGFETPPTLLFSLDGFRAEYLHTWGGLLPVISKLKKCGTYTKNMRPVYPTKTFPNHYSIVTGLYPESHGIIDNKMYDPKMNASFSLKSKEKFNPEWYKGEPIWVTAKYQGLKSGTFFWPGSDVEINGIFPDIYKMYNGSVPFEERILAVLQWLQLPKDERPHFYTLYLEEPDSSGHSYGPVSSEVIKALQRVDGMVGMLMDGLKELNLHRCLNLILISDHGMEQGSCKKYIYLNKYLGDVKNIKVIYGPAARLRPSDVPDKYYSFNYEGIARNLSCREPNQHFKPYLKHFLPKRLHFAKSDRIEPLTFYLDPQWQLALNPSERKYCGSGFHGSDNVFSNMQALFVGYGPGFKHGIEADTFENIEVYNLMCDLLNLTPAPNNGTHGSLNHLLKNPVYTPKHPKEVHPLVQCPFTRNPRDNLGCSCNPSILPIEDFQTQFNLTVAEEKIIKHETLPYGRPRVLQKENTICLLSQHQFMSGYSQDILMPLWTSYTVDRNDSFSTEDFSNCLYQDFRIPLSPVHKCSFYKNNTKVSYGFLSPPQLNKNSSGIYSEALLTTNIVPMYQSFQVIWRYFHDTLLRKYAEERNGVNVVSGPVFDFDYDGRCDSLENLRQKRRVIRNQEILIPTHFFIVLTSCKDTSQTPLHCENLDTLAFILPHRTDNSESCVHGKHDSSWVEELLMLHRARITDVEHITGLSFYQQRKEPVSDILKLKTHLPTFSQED
In short: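 Reaction ran 1 h at room temperature in pH 7.5 Tris with MgCl2, TCEP, Tween 20 and 1% DMSO. ATP was added as a 300 nM stock and enzyme as an 8.5 μM stock. After EDTA stop, AMP was read by TR-FRET tracer displacement. Percent inhibition used enzyme/no-enzyme controls; IC50 was fitted with a variable slope.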

ENPP3 = biological target: T2, ENPP3 (Homo sapiens, UniProt O14638); experiment: ENPP3 Km ATP assay; type: biochemical; details: ATP at Km
T2 sequence (O14638 1-875): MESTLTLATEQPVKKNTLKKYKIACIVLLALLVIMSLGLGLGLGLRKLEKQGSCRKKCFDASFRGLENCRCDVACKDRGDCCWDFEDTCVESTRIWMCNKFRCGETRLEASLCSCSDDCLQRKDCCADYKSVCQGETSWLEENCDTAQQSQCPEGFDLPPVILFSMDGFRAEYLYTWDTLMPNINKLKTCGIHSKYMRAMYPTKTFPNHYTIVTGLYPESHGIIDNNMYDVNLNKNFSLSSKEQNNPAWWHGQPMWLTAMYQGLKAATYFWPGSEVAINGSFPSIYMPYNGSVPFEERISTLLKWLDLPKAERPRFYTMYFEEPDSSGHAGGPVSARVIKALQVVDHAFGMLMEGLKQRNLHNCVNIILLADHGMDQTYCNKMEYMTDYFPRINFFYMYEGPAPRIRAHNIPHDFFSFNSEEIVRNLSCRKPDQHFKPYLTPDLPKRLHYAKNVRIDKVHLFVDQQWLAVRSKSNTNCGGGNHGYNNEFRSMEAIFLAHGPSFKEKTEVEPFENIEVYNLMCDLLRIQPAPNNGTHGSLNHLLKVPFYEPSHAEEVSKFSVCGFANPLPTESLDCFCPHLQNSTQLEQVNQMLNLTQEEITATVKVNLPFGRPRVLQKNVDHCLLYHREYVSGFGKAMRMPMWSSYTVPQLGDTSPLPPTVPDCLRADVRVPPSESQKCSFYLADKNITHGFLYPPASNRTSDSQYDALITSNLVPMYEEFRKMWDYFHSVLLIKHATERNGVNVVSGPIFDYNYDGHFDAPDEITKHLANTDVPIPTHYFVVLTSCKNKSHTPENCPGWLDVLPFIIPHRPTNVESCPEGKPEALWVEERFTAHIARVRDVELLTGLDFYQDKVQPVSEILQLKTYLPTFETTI

| SMILES | IC50 (human ENPP1) | IC50 (ENPP3) |
| --- | --- | --- |
| Cn1ncc2c(NCc3ccc(S(N)(=O)=O)c(Cl)c3)ccnc21 [Example 2.68, 2-Chloro-4-(((1-methyl-1H-pyrazolo[3,4-b]pyridin-4-yl)amino)methyl)-benzenesulfonamide] | 0.1 to 1 µM | 1 to 20 µM |
| Cc1cc(S(N)(=O)=O)ccc1CNc1ccnc2c1cnn2C [Example 2.69, 3-Methyl-4-(((1-methyl-1H-pyrazolo[3,4-b]pyridin-4-yl)amino)methyl)-benzenesulfonamide] | 0.1 to 1 µM | 1 to 20 µM |
| Cc1cc(CNc2ccnc3c2cnn3C)ccc1S(N)(=O)=O [Example 2.70, 2-Methyl-4-(((1-methyl-1H-pyrazolo[3,4-b]pyridin-4-yl)amino)methyl)-benzenesulfonamide] | 0.1 to 1 µM | 1 to 20 µM |
| Cn1ncc2c(NCc3ccc(S(N)(=O)=O)cn3)ccnc21 [Example 2.71, 6-(((1-Methyl-1H-pyrazolo[3,4-b]pyridin-4-yl)amino)methyl)pyridine-3-sulfonamide] | < 0.1 µM | 0.1 to 1 µM |
| Cn1ncc2c(NCc3ccc(S(N)(=O)=O)nc3)ccnc21 [Example 2.72, 5-(((1-Methyl-1H-pyrazolo[3,4-b]pyridin-4-yl)amino)methyl)pyridine-2-sulfonamide] | < 0.1 µM | 0.1 to 1 µM |
| Cn1ncc2c(NCc3ccc(S(N)(=O)=O)cc3)cc(Cl)nc21 [Example 2.73, 4-(((6-Chloro-1-methyl-1H-pyrazolo[3,4-b]pyridin-4-yl)amino)methyl)benzenesulfonamide] | < 0.1 µM | < 0.1 µM |
| CC(C)Nc1cc(NCc2ccc(S(N)(=O)=O)cc2)c2cnn(C)c2n1 [Example 2.74, 4-(((6-(Isopropylamino)-1-methyl-1H-pyrazolo[3,4-b]pyridin-4-yl)amino)methyl)benzenesulfonamide] | 1 to 20 µM | 1 to 20 µM |
| CCNc1cc(NCc2ccc(S(N)(=O)=O)cc2)c2cnn(C)c2n1 [Example 2.75, 4-(((6-(Ethylamino)-1-methyl-1H-pyrazolo[3,4-b]pyridin-4-yl)amino)methyl)-benzenesulfonamide] | 0.1 to 1 µM | 1 to 20 µM |
| CNc1cc(NCc2ccc(S(N)(=O)=O)cc2)c2cnn(C)c2n1 [Example 2.76, 4-(((1-Methyl-6-(methylamino)-1H-pyrazolo[3,4-b]pyridin-4-yl)amino)methyl)-benzenesulfonamide] | 1 to 20 µM | 0.1 to 1 µM |
| Cn1ncc2c(NCc3ccc(S(N)(=O)=O)cc3)cc(N3CCCC3)nc21 [Example 2.77, 4-(((1-Methyl-6-(pyrrolidin-1-yl)-1H-pyrazolo[3,4-b]pyridin-4-yl)amino)methyl)-benzenesulfonamide] | 1 to 20 µM | 0.1 to 1 µM |
| Cn1ncc2c(NCc3ccc(S(N)(=O)=O)cc3)cc(N)nc21 [Example 2.78, 4-(((6-Amino-1-methyl-1H-pyrazolo[3,4-b]pyridin-4-yl)amino)methyl)-benzenesulfonamide] | 0.1 to 1 µM | 0.1 to 1 µM |
| CCN(CC)c1cc(NCc2ccc(S(N)(=O)=O)cc2)c2cnn(C)c2n1 [Example 2.79, 4-(((6-(Diethylamino)-1-methyl-1H-pyrazolo[3,4-b]pyridin-4-yl)amino)methyl)-benzenesulfonamide] | > 20 µM | 1 to 20 µM |
| CCCCNc1cc(NCc2ccc(S(N)(=O)=O)cc2)c2cnn(C)c2n1 [Example 2.80, 4-(((6-(Butylamino)-1-methyl-1H-pyrazolo[3,4-b]pyridin-4-yl)amino)methyl)-benzenesulfonamide] | 1 to 20 µM | 1 to 20 µM |
| Cn1ncc2c(NCc3ccc(S(N)(=O)=O)cc3)cc(NCCO)nc21 [Example 2.81, 4-(((6-((2-Hydroxyethyl)amino)-1-methyl-1H-pyrazolo[3,4-b]pyridin-4-yl)amino)methyl)-benzenesulfonamide] | 1 to 20 µM | 1 to 20 µM |
| Cn1ncc2c(NCc3ccc(S(N)(=O)=O)cc3)cc(N3CCOCC3)nc21 [Example 2.82, 4-(((1-Methyl-6-morpholino-1H-pyrazolo[3,4-b]pyridin-4-yl)amino)methyl)-benzenesulfonamide] | 1 to 20 µM | 1 to 20 µM |
| CCn1ncc2c(NCc3ccc(S(N)(=O)=O)cc3)nc(Cl)nc21 [Example 2.83, 4-((6-Chloro-1-ethyl-1H-pyrazolo[3,4-d]pyrimidin-4-yl)aminomethyl)benzenesulfonamide] | < 0.1 µM | 1 to 20 µM |
| NS(=O)(=O)c1ccc(CNc2nc(Cl)nc3c2cnn3C2CC2)cc1 [Example 2.84, 4-((6-Chloro-1-cyclopropyl-1H-pyrazolo[3,4-d]pyrimidin-4-yl)aminomethyl)-benzenesulfonamide] | < 0.1 µM | 1 to 20 µM |
| Cn1ncc2c(NCc3ccc(S(N)(=O)=O)s3)nc(Cl)nc21 [Example 2.85, 5-((6-Chloro-1-methyl-1H-pyrazolo[3,4-d]pyrimidin-4-yl)aminomethyl)thiophene-2-sulfonamide] | 0.1 to 1 µM | 0.1 to 1 µM |
| NS(=O)(=O)c1ccc(CNc2nc(Cl)nc3c2cnn3CC(F)(F)F)cc1 [Example 2.86, 4-((6-Chloro-1-(2,2,2-trifluoroethyl)-1H-pyrazolo[3,4-d]pyrimidin-4-yl)aminomethyl)-benzenesulfonamide] | 1 to 20 µM | 1 to 20 µM |
| Cn1nc(Br)c2c(NCc3ccc(S(N)(=O)=O)cc3)nc(Cl)nc21 [Example 2.87, 4-((3-Bromo-6-chloro-1-methyl-1H-pyrazolo[3,4-d]pyrimidin-4-yl)aminomethyl)-benzenesulfonamide] | < 0.1 µM | < 0.1 µM |
| Cc1nc(NCc2ccc(S(N)(=O)=O)cc2)c2c(Br)nn(C)c2n1 [Example 2.89, 4-((3-Bromo-1,6-dimethyl-1H-pyrazolo[3,4-d]pyrimidin-4-yl)aminomethyl)-benzenesulfonamide] | < 0.1 µM | < 0.1 µM |
| Cn1nc(Cl)c2c(NCc3ccc(S(N)(=O)=O)cc3)ncnc21 [Example 2.90, 4-((3-Chloro-1-methyl-1H-pyrazolo[3,4-d]pyrimidin-4-yl)aminomethyl)-benzenesulfonamide] | 0.1 to 1 µM | 0.1 to 1 µM |
| Cn1ncc2c(NCc3ccc(S(N)(=O)=O)cc3)nc(Cl)nc21 [Example 2.92, 4-((6-Chloro-1-methyl-1H-pyrazolo[3,4-d]pyrimidin-4-yl)aminomethyl)-benzenesulfonamide] | < 0.1 µM | 0.1 to 1 µM |
| CCOc1nc(NCc2ccc(S(N)(=O)=O)cc2)c2cnn(C)c2n1 [Example 2.93, 4-((6-Ethoxy-1-methyl-1H-pyrazolo[3,4-d]pyrimidin-4-yl)aminomethyl)-benzenesulfonamide] | < 0.1 µM | 0.1 to 1 µM |
| COc1nc(NCc2ccc(S(N)(=O)=O)cc2)c2cnn(C)c2n1 [Example 2.94, 4-((6-Methoxy-1-methyl-1H-pyrazolo[3,4-d]pyrimidin-4-yl)aminomethyl)-benzenesulfonamide] | < 0.1 µM | 0.1 to 1 µM |
| COc1nc(NCc2ccc(S(N)(=O)=O)s2)c2cnn(C)c2n1 [Example 2.95, 5-((6-Methoxy-1-methyl-1H-pyrazolo[3,4-d]pyrimidin-4-yl)aminomethyl)thiophene-2-sulfonamide] | 0.1 to 1 µM | 0.1 to 1 µM |
